The kinase profiling compilation of Christmann-Franck et al. (2016)

Assays:
Assay in all cases: radiometric filter-binding kinase assay, Kinase HotSpot
Conditions in all cases: compound 0.5 µM; ATP 10 µM
[1] = target: PHKG2 (human) (UniProt P15735)
[2] = target: GRK4 (human) (UniProt P32298)
[3] = target: ABL2 (human) (UniProt P42684)
[4] = target: STK33 (human) (UniProt Q9BYT3)
[5] = target: MAPKAPK5 (human) (UniProt Q8IW41)
[6] = target: STK11 (human) (UniProt Q15831)
[7] = target: BRSK1 (human) (UniProt Q8TDC3)
[8] = target: ADRBK2 (human) (UniProt P35626)
ADRBK2 (human), sequence (P35626 whole entry, looked up): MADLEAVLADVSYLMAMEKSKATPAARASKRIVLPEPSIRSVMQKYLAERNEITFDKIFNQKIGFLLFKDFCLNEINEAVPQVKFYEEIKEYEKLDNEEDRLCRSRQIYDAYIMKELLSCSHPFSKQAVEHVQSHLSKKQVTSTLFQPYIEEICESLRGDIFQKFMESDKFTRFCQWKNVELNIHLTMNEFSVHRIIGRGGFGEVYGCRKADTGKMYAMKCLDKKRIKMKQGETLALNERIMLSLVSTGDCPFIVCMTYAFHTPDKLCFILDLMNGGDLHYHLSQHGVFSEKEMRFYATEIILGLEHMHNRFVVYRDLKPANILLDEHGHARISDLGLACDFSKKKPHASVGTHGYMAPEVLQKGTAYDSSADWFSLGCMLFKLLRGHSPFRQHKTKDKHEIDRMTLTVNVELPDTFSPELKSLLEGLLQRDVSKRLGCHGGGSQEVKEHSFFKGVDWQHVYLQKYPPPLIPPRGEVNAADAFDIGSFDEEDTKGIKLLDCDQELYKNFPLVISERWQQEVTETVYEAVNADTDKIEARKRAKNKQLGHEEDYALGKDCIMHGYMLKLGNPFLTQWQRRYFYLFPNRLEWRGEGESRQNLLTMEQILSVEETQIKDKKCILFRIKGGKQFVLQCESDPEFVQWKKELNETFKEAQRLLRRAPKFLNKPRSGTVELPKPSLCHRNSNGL

[9] = target: NTRK1 (human) (UniProt P04629)
[10] = target: MET (human) (UniProt P08581)
[11] = target: AURKA (human) (UniProt O14965)
[12] = target: MAPK9 (human) (UniProt P45984)
[13] = target: TAOK2 (human) (UniProt Q9UL54)
[14] = target: RPS6KA1 KD1 KD2 (human) (UniProt Q15418)
RPS6KA1 KD1 KD2 (human), sequence (Q15418 whole entry, looked up): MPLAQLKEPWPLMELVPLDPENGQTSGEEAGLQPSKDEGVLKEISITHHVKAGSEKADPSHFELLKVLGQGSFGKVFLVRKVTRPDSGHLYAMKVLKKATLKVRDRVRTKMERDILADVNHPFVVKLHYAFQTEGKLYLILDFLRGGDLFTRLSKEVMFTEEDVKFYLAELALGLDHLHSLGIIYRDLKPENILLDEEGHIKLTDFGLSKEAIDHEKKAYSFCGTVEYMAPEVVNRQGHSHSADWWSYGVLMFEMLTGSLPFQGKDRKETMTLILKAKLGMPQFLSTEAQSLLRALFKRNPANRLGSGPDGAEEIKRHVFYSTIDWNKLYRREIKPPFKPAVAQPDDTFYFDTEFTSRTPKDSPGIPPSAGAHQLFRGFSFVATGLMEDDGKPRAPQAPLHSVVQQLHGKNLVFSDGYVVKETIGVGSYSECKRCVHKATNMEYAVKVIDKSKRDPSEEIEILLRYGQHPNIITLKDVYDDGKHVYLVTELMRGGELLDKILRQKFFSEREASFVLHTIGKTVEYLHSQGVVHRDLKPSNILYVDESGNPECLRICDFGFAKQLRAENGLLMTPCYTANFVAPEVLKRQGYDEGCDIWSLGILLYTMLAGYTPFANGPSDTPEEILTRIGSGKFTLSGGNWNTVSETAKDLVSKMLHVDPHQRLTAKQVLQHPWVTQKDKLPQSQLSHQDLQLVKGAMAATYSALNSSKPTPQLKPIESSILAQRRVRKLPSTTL

[15] = target: EPHA4 (human) (UniProt P54764)
[16] = target: JAK3 JH1 JH2 (human) (UniProt P52333)
[17] = target: MARK2 (human) (UniProt Q7KZI7)
MARK2 (human), sequence (Q7KZI7 whole entry, looked up): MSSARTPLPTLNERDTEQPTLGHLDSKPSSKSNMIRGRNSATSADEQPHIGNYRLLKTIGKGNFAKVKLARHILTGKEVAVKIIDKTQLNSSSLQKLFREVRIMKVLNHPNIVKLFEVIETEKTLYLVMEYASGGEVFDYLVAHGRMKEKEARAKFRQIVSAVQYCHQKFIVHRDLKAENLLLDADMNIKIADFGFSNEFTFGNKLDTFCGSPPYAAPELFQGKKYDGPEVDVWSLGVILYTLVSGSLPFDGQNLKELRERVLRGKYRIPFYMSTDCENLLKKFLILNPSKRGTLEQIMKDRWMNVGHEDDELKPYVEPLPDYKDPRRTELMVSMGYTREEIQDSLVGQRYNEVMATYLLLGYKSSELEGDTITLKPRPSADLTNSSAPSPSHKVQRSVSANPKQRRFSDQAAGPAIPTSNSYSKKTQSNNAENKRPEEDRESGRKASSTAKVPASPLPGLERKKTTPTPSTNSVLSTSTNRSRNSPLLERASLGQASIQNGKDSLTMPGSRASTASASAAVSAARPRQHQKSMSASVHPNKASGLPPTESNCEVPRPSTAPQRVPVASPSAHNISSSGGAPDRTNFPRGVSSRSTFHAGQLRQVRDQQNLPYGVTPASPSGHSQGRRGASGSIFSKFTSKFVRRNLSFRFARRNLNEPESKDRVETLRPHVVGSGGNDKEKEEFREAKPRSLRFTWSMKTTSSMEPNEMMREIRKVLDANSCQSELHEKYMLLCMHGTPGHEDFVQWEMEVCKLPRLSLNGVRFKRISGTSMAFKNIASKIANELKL

[18] = target: TXK (human) (UniProt P42681)
[19] = target: CSNK1E (human) (UniProt P49674)
[20] = target: HIPK2 (human) (UniProt Q9H2X6)
[21] = target: MYLK (human) (UniProt Q15746)
[22] = target: EPHB3 (human) (UniProt P54753)
[23] = target: NUAK1 (human) (UniProt O60285)
[24] = target: GRK6 (human) (UniProt P43250)
[25] = target: PIM2 (human) (UniProt Q9P1W9)
[26] = target: CDK2 CCNA2 (human) (UniProt P24941+P20248)
CDK2 CCNA2 (human), sequence (P20248 whole entry, looked up, other chains not shown): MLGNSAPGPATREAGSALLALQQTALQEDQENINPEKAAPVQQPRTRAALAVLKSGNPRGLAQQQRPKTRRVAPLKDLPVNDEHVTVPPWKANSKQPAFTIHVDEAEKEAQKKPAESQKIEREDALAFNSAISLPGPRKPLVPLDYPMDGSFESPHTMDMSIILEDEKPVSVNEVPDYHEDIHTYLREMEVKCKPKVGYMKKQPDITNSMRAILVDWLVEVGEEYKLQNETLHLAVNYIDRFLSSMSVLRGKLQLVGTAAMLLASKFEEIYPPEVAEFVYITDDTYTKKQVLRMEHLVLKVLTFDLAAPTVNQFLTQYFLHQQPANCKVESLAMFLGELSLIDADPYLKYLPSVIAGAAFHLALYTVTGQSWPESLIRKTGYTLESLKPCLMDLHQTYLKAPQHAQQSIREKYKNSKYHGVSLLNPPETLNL

[27] = target: MAP3K8 (human) (UniProt P41279)
[28] = target: MERTK (human) (UniProt Q12866)
MERTK (human), sequence (Q12866 whole entry, looked up): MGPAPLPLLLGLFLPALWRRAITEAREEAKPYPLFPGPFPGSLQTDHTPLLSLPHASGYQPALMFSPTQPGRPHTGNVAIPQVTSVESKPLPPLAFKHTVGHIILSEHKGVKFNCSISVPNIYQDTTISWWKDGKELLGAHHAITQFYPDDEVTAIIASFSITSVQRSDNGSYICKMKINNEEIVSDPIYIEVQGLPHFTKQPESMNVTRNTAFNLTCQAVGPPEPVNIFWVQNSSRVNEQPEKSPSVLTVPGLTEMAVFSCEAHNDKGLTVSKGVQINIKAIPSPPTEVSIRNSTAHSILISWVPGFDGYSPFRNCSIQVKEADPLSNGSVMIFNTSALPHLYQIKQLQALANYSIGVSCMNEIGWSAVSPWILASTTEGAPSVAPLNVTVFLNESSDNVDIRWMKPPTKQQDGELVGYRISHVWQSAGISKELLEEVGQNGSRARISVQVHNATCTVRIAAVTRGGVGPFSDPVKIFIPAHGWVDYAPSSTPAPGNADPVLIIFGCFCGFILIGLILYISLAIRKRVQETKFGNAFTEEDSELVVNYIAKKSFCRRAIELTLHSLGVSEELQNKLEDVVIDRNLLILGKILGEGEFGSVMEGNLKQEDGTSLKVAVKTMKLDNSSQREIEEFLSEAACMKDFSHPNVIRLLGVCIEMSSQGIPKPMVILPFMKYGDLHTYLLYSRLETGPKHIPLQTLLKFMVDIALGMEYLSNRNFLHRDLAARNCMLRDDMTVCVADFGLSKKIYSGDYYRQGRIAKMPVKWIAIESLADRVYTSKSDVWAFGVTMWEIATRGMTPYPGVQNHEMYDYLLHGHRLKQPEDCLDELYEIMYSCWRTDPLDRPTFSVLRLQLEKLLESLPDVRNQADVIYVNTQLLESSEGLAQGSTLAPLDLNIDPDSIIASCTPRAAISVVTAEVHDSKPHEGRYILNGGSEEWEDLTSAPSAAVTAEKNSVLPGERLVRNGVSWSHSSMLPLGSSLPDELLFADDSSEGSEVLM

[29] = target: CSNK1A1 (human) (UniProt P48729)
[30] = target: FLT1 (human) (UniProt P17948)
[31] = target: NEK3 (human) (UniProt P51956)
[32] = target: CDK9 CCNT1 (human) (UniProt P50750+O60563)
[33] = target: EPHA8 (human) (UniProt P29322)
[34] = target: STK3 (human) (UniProt Q13188)
[35] = target: ACVR1B (human) (UniProt P36896)
[36] = target: PRKCA (human) (UniProt P17252)
[37] = target: CSNK1G3 (human) (UniProt Q9Y6M4)
[38] = target: NLK (human) (UniProt Q9UBE8)
NLK (human), sequence (Q9UBE8 whole entry, looked up): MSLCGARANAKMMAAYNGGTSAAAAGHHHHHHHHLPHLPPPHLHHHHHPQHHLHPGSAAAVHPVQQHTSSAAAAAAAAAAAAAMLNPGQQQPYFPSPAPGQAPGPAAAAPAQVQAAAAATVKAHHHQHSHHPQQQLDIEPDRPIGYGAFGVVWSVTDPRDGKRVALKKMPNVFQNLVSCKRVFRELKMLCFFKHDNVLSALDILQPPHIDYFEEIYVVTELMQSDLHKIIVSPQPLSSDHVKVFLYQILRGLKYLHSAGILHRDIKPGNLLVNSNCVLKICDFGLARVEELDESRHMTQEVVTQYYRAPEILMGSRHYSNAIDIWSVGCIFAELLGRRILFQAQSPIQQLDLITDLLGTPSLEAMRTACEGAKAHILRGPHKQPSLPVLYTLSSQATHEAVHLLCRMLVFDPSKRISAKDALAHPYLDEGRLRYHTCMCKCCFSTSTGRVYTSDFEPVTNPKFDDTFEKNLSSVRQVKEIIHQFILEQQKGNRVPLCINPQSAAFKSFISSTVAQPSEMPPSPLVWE

[39] = target: NUAK2 (human) (UniProt Q9H093)
NUAK2 (human), sequence (Q9H093 whole entry, looked up): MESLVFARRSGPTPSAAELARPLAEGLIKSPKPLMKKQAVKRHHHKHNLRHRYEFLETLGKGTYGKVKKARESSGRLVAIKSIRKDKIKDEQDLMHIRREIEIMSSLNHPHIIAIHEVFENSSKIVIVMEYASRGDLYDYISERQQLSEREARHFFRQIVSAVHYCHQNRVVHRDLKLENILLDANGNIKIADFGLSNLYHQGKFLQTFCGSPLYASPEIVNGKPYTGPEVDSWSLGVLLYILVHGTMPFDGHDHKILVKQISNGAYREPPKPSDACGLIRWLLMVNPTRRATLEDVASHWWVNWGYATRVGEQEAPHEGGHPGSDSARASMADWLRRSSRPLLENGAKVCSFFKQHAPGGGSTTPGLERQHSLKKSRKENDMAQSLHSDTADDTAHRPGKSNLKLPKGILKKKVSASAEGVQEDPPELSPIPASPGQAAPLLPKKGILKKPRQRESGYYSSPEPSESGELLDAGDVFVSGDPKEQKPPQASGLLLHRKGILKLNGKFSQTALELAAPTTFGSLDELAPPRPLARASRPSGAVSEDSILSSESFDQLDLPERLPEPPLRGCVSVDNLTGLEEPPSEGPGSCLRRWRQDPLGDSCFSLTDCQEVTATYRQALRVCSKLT

[40] = target: RIPK2 (human) (UniProt O43353)
[41] = target: CDC42BPB (human) (UniProt Q9Y5S2)

Structure (SMILES) | residual activity [1] | residual activity [2] | residual activity [4] | residual activity [5] | residual activity [8] | residual activity [9] | residual activity [11] | residual activity [13] | residual activity [14] | residual activity [16] | residual activity [17] | residual activity [19] | residual activity [20] | residual activity [22] | residual activity [23] | residual activity [24] | residual activity [25] | residual activity [26] | residual activity [27] | residual activity [28] | further results
COc1cc2ncnc(Nc3ccc(F)c(Cl)c3)c2cc1OCCCN1CCOCC1 | 93.9% | 91% | 90.4% | 92.7% | 97.9% | 103% | 95.3% | 106% | 97.3% | 96.6% | 119% | 106% | 99.7% | 57.5% | 99.1% | 99.6% | 96.2% | 95.9% | 95.7% | 95.9% | residual activity [3]: 72%; residual activity [6]: 106%; residual activity [7]: 92.5%; residual activity [10]: 92.4%; residual activity [12]: 95.5%; residual activity [15]: 90.2%; residual activity [18]: 83.2%; residual activity [21]: 89.7%; residual activity [29]: 98.6%; residual activity [30]: 98.3%; residual activity [31]: 94.4%; residual activity [32]: 87.3%; residual activity [33]: 84.5%; residual activity [34]: 93.6%; residual activity [35]: 99.6%; residual activity [36]: 93.6%; residual activity [37]: 103%; residual activity [38]: 91.1%; residual activity [39]: 96%
C#Cc1cccc(Nc2ncnc3cc(OCCOC)c(OCCOC)cc23)c1 | 97.9% | 89.6% | 90.8% | 89.7% | 94.8% | 102% | 75.3% | 106% | 97.6% | 91.3% | 129% | 98.2% | 99.3% | 58% | 98% | 99.2% | 97.9% | 95.9% | 91.8% | 99% | residual activity [40]: 57.9%; residual activity [29]: 98.6%; residual activity [30]: 87.5%; residual activity [31]: 95.6%; residual activity [32]: 87.3%; residual activity [33]: 89.7%; residual activity [34]: 94.9%; residual activity [35]: 101%; residual activity [36]: 88.6%; residual activity [37]: 106%; residual activity [38]: 103%; residual activity [39]: 95.3%; residual activity [41]: 98.5%
